{
  "source": "patent US6358885B1",
  "about": "“Substituted phenylheterocyclic herbicides” (Mississippi State University, priority 1992, dated 2002)",
  "key": {"wild oat": {"tested_on": "wild oat", "test": "Test B preemergence/postemergence greenhouse plant response rating 0 to 10", "assay_type": "in vivo, Avena fatua", "conditions": "for Plant response rating, Wild oat: 0 to 10 scale", "how_it_was_run": "(§1)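 Postemergence treatment of plants two to eighteen cm tall ran alongside preemergence treatment of planted seed, each using compound in a non-phytotoxic solvent.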"}, "barnyardgrass": {"tested_on": "barnyardgrass", "test": "Test C flood test plant response rating 0 to 100", "assay_type": "in vivo, Echinochloa crus-galli", "how_it_was_run": "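Compounds in non-phytotoxic solvent applied preemergence to sandy loam one day after planting, postemergence at the 1–4 leaf stage, or to ~2.5 cm floodwater over silt loam.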"}, "blackgrass [1]": {"tested_on": "blackgrass", "test": "Test C preemergence/postemergence greenhouse plant response rating 0 to 100", "assay_type": "in vivo, Alopecurus myosuroides", "conditions": "for Plant response rating, Blackgrass: 125 g/ha, 0 to 100 scale", "how_it_was_run": "(§2)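 Compounds in non-phytotoxic solvent went onto sandy loam before emergence (seeded one day earlier) or onto plants at the one-to-four leaf stage. Duck salad was treated via flood water (~2.5 cm, maintained) over silt loam.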"}, "pigweed": {"tested_on": "pigweed", "test": "Test C preemergence/postemergence greenhouse plant response rating 0 to 100", "assay_type": "in vivo, Amaranthusretroflexus", "conditions": "for Plant response rating Pigweed: 125 g/ha, 0 to 100 scale", "how_it_was_run": "as §2"}, "wheat": {"tested_on": "wheat", "test": "Test C preemergence/postemergence greenhouse plant response rating 0 to 100", "assay_type": "in vivo, Triticum aestivum", "conditions": "for Plant response rating, Wheat: 125 g/ha, 0 to 100 scale", "how_it_was_run": "as §2"}, "ryegrass": {"tested_on": "ryegrass", "test": "Test C preemergence/postemergence greenhouse plant response rating 0 to 100", "assay_type": "in vivo, Lolium multiflorum", "conditions": "for Plant response rating Ryegrass: 125 g/ha, 0 to 100 scale", "how_it_was_run": "as §2"}, "bedstraw": {"tested_on": "bedstraw", "test": "Test B preemergence/postemergence greenhouse plant response rating 0 to 10", "assay_type": "in vivo, Galium aparine", "conditions": "for Plant response rating, Bedstraw: 0 to 10 scale", "how_it_was_run": "as §1"}, "morningglory": {"tested_on": "morningglory", "test": "Test B preemergence/postemergence greenhouse plant response rating 0 to 10", "assay_type": "in vivo, Ipomoea hederacea", "conditions": "for Plant response rating, Morningglory: 0 to 10 scale", "how_it_was_run": "as §1"}, "cocklebur": {"tested_on": "cocklebur", "test": "Test B preemergence/postemergence greenhouse plant response rating 0 to 10", "assay_type": "in vivo, Xanthium pensylvanicum", "conditions": "for Plant response rating, Cocklebur: 0 to 10 scale", "how_it_was_run": "as §1"}, "sugar beet": {"tested_on": "sugar beet", "test": "Test B preemergence/postemergence greenhouse plant response rating 0 to 10", "assay_type": "in vivo, Beta vulgaris", "conditions": "for Plant response rating, Sugar beet: 0 to 10 scale", "how_it_was_run": "as §1"}, "cotton": {"tested_on": "cotton", "test": "Test C preemergence/postemergence greenhouse plant response rating 0 to 100", "assay_type": "in vivo, Gossypium hirsutum", "conditions": "for Plant response rating, Cotton: 125 g/ha, 0 to 100 scale", "how_it_was_run": "as §2"}, "blackgrass [2]": {"tested_on": "blackgrass", "test": "Test B preemergence/postemergence greenhouse plant response rating 0 to 10", "assay_type": "in vivo, Alopecurus myosuroides", "conditions": "for Plant response rating, Blackgrass: 0 to 10 scale", "how_it_was_run": "as §1"}},
  "data": [
    {"compound": "CCOCOc1cc(-c2nn3c(c2Cl)CCCC3)c(F)cc1Cl", "note": "[Compound 59]", "values": [
      {"measurement": "Plant response rating, Wild oat", "setting": "wild oat; POSTEMERGENCE, Rate 50 g/ha", "result": 7},
      {"measurement": "Plant response rating, Wild oat", "setting": "wild oat; PREEMERGENCE, Rate 50 g/ha", "result": 2},
      {"measurement": "Plant response rating (0 to 10 scale), Wild oat", "setting": "wild oat; PREEMERGENCE, Rate 200 g/ha", "result": 7},
      {"measurement": "Plant response rating, Wild oat", "setting": "wild oat; Rate 200 g/ha, POSTEMERGENCE", "result": 7},
      {"measurement": "Plant response rating (0 to 100), Barnyardgrass 2", "setting": "barnyardgrass; POSTEMERGENCE section, flood test, Rate 2 g/ha", "result": 0},
      {"measurement": "Plant response rating (0 to 100), Barnyardgrass 2", "setting": "barnyardgrass; Rate 8 g/ha, under POSTEMERGENCE head (flood test species)", "result": 90},
      {"measurement": "Plant response rating (0 to 100), Barnyardgrass 2", "setting": "barnyardgrass; Rate 31 g/ha, under POSTEMERGENCE head (flood test species)", "result": 100},
      {"measurement": "Plant response rating Barnyardgrass 2", "setting": "barnyardgrass; flood test species listed under POSTEMERGENCE, 125 g/ha, 0 to 100 scale", "result": 100},
      {"measurement": "Plant response rating, Blackgrass", "setting": "blackgrass [1]; POSTEMERGENCE", "result": 70},
      {"measurement": "Plant response rating (0 to 100), Blackgrass", "setting": "blackgrass [1]; POSTEMERGENCE, Rate 2 g/ha", "result": 20},
      {"measurement": "Plant response rating, Blackgrass", "setting": "blackgrass [1]; PREEMERGENCE", "result": 90},
      {"measurement": "Plant response rating (0 to 100), Blackgrass", "setting": "blackgrass [1]; PREEMERGENCE, Rate 2 g/ha", "result": 0},
      {"measurement": "Plant response rating (0 to 100), Blackgrass", "setting": "blackgrass [1]; Rate 8 g/ha, POSTEMERGENCE", "result": 30},
      {"measurement": "Plant response rating (0 to 100), Blackgrass", "setting": "blackgrass [1]; Rate 8 g/ha, PREEMERGENCE", "result": 20},
      {"measurement": "Plant response rating (0 to 100), Blackgrass", "setting": "blackgrass [1]; Rate 31 g/ha, POSTEMERGENCE", "result": 50},
      {"measurement": "Plant response rating (0 to 100), Blackgrass", "setting": "blackgrass [1]; Rate 31 g/ha, PREEMERGENCE", "result": 50},
      {"measurement": "Plant response rating Pigweed", "setting": "pigweed; POSTEMERGENCE", "result": 100},
      {"measurement": "Plant response rating (0 to 100), Pigweed", "setting": "pigweed; POSTEMERGENCE, Rate 2 g/ha", "result": 30},
      {"measurement": "Plant response rating Pigweed", "setting": "pigweed; PREEMERGENCE", "result": 100},
      {"measurement": "Plant response rating (0 to 100), Pigweed", "setting": "pigweed; PREEMERGENCE, Rate 2 g/ha", "result": 0},
      {"measurement": "Plant response rating (0 to 100), Pigweed", "setting": "pigweed; Rate 8 g/ha, POSTEMERGENCE", "result": 30},
      {"measurement": "Plant response rating (0 to 100), Pigweed", "setting": "pigweed; Rate 8 g/ha, PREEMERGENCE", "result": 100},
      {"measurement": "Plant response rating (0 to 100), Pigweed", "setting": "pigweed; Rate 31 g/ha, POSTEMERGENCE", "result": 100},
      {"measurement": "Plant response rating (0 to 100), Pigweed", "setting": "pigweed; Rate 31 g/ha, PREEMERGENCE", "result": 100},
      {"measurement": "Plant response rating, Wheat", "setting": "wheat; POSTEMERGENCE", "result": 70},
      {"measurement": "Plant response rating (0 to 100), Wheat", "setting": "wheat; POSTEMERGENCE, Rate 2 g/ha", "result": 10},
      {"measurement": "Plant response rating, Wheat", "setting": "wheat; PREEMERGENCE", "result": 10},
      {"measurement": "Plant response rating (0 to 100), Wheat", "setting": "wheat; PREEMERGENCE, Rate 2 g/ha", "result": 0},
      {"measurement": "Plant response rating (0 to 100), Wheat", "setting": "wheat; Rate 8 g/ha, POSTEMERGENCE", "result": 40},
      {"measurement": "Plant response rating (0 to 100), Wheat", "setting": "wheat; Rate 8 g/ha, PREEMERGENCE", "result": 0},
      {"measurement": "Plant response rating (0 to 100), Wheat", "setting": "wheat; Rate 31 g/ha, POSTEMERGENCE", "result": 60},
      {"measurement": "Plant response rating (0 to 100), Wheat", "setting": "wheat; Rate 31 g/ha, PREEMERGENCE", "result": 0},
      {"measurement": "Plant response rating Ryegrass", "setting": "ryegrass; POSTEMERGENCE", "result": 80},
      {"measurement": "Plant response rating (0 to 100), Ryegrass", "setting": "ryegrass; POSTEMERGENCE, Rate 2 g/ha", "result": 10},
      {"measurement": "Plant response rating Ryegrass", "setting": "ryegrass; PREEMERGENCE", "result": 90},
      {"measurement": "Plant response rating (0 to 100), Ryegrass", "setting": "ryegrass; PREEMERGENCE, Rate 2 g/ha", "result": 0},
      {"measurement": "Plant response rating (0 to 100), Ryegrass", "setting": "ryegrass; Rate 8 g/ha, POSTEMERGENCE", "result": 20},
      {"measurement": "Plant response rating (0 to 100), Ryegrass", "setting": "ryegrass; Rate 8 g/ha, PREEMERGENCE", "result": 20},
      {"measurement": "Plant response rating (0 to 100), Ryegrass", "setting": "ryegrass; Rate 31 g/ha, POSTEMERGENCE", "result": 40},
      {"measurement": "Plant response rating (0 to 100), Ryegrass", "setting": "ryegrass; Rate 31 g/ha, PREEMERGENCE", "result": 50},
      {"measurement": "Plant response rating, Bedstraw", "setting": "bedstraw; POSTEMERGENCE, Rate 50 g/ha", "result": 10},
      {"measurement": "Plant response rating, Bedstraw", "setting": "bedstraw; PREEMERGENCE, Rate 50 g/ha", "result": 8},
      {"measurement": "Plant response rating (0 to 10 scale), Bedstraw", "setting": "bedstraw; PREEMERGENCE, Rate 200 g/ha", "result": 10},
      {"measurement": "Plant response rating, Bedstraw", "setting": "bedstraw; Rate 200 g/ha, POSTEMERGENCE", "result": 8},
      {"measurement": "Plant response rating, Morningglory", "setting": "morningglory; POSTEMERGENCE, Rate 50 g/ha", "result": 8},
      {"measurement": "Plant response rating, Morningglory", "setting": "morningglory; PREEMERGENCE, Rate 50 g/ha", "result": 2},
      {"measurement": "Plant response rating (0 to 10 scale), Morningglory", "setting": "morningglory; PREEMERGENCE, Rate 200 g/ha", "result": 6},
      {"measurement": "Plant response rating, Morningglory", "setting": "morningglory; Rate 200 g/ha, POSTEMERGENCE", "result": 10},
      {"measurement": "Plant response rating, Cocklebur", "setting": "cocklebur; POSTEMERGENCE, Rate 50 g/ha", "result": 7},
      {"measurement": "Plant response rating, Cocklebur", "setting": "cocklebur; PREEMERGENCE, Rate 50 g/ha", "result": 0},
      {"measurement": "Plant response rating (0 to 10 scale), Cocklebur", "setting": "cocklebur; PREEMERGENCE, Rate 200 g/ha", "result": 8},
      {"measurement": "Plant response rating, Cocklebur", "setting": "cocklebur; Rate 200 g/ha, POSTEMERGENCE", "result": 10},
      {"measurement": "Plant response rating, Sugar beet", "setting": "sugar beet; POSTEMERGENCE, Rate 50 g/ha", "result": 10},
      {"measurement": "Plant response rating, Sugar beet", "setting": "sugar beet; PREEMERGENCE, Rate 50 g/ha", "result": 9},
      {"measurement": "Plant response rating (0 to 10 scale), Sugar beet", "setting": "sugar beet; PREEMERGENCE, Rate 200 g/ha", "result": 10},
      {"measurement": "Plant response rating, Sugar beet", "setting": "sugar beet; Rate 200 g/ha, POSTEMERGENCE", "result": 10},
      {"measurement": "Plant response rating, Cotton", "setting": "cotton; POSTEMERGENCE", "result": 100},
      {"measurement": "Plant response rating (0 to 100), Cotton", "setting": "cotton; POSTEMERGENCE, Rate 2 g/ha", "result": 95},
      {"measurement": "Plant response rating, Cotton", "setting": "cotton; PREEMERGENCE", "result": 50},
      {"measurement": "Plant response rating (0 to 100), Cotton", "setting": "cotton; PREEMERGENCE, Rate 2 g/ha", "result": 0},
      {"measurement": "Plant response rating (0 to 100), Cotton", "setting": "cotton; Rate 8 g/ha, POSTEMERGENCE", "result": 100},
      {"measurement": "Plant response rating (0 to 100), Cotton", "setting": "cotton; Rate 8 g/ha, PREEMERGENCE", "result": 0},
      {"measurement": "Plant response rating (0 to 100), Cotton", "setting": "cotton; Rate 31 g/ha, POSTEMERGENCE", "result": 100},
      {"measurement": "Plant response rating (0 to 100), Cotton", "setting": "cotton; Rate 31 g/ha, PREEMERGENCE", "result": 10},
      {"measurement": "Plant response rating, Blackgrass", "setting": "blackgrass [2]; POSTEMERGENCE, Rate 50 g/ha", "result": 4},
      {"measurement": "Plant response rating, Blackgrass", "setting": "blackgrass [2]; PREEMERGENCE, Rate 50 g/ha", "result": 4},
      {"measurement": "Plant response rating (0 to 10 scale), Blackgrass", "setting": "blackgrass [2]; PREEMERGENCE, Rate 200 g/ha", "result": 5},
      {"measurement": "Plant response rating, Blackgrass", "setting": "blackgrass [2]; Rate 200 g/ha, POSTEMERGENCE", "result": 5}
    ]}
  ]
}
